Where “and” joins values, the source holds several entries; their conditions need not be identical. Identical values can stand only once. Entries after “also recorded” stand apart in the source; their conditions may differ. Like-named read-outs stand apart in the source and are kept apart here.
How the values were obtained:
[1] = tested on: A875 shp75 knock-down cells; experiment: Cleaved PARP western blot (apoptosis), A875 shp75; assay type: cell-based, human
Description: One of the main biological readouts of p75^NTR activity in response to neurotrophins is the induction of caspase-mediated apoptotic cell death (Underwood and Coulson, [2008]; Friedman, [2010]; Ibáñez and Simi, [2012]).
COS7, A875 and WM115 cell lines were cultured under standard conditions in DMEM supplemented with 10% fetal calf serum, 100 units/ml penicillin, […] streptomycin, and 2.5 mM glutamine. All cells were authenticated and tested for mycoplasma contamination. A875-NT (control) and A875 shp75 (knockdown) cell lines were described previously (Goh et al, [2018]).

A875 NT cells = experiment: Filopodia per cell (phalloidin staining), A875 NT; assay type: cell-based, human; conditions: for Filopodia per cell, mean of the well: EXP1 NT; for Filopodia per cell, mean of experiment: EXP1-EXP3; for Filopodia per cell, mean of three experiments: mean of EXP1-3
Description: For assessment of actin filaments, A875 cells were plated on glass coverslips in 24-well plate at a confluency of 3 × 10^4 cells/well. One day after plating, the cells were treated with 1 μM or 5 μM Np75-4A22 and NGF (100 ng/ml) or PBS for 24 h. Cells were fixed in 4% paraformaldehyde, permeabilized in 0.1% Triton-X-100, stained with Phalloidin-iFluor 488 (Abcam) at 1:2000 dilution and DAPI for 1 h. Coverslips were mounted and visualized in a laser confocal microscope.

[2] = Plasma pharmacokinetics in mice; assay type: in vivo, C57BL/6 mice; conditions: for Cmax: read-out: C0/Cmax; for Vd: read-out: Vss
[3] = tested on: A875-NT melanoma xenograft; experiment: Melanoma lung invasion assay, A875-NT, treatment from one day before cell injection; assay type: in vivo, SCID mice; conditions: for Photons/second/ mouse/week, Average: group average; for Photons/second/ mouse/week: single mouse
Description: Next, to assess the potential inhibitory effects of Np75-4A22 on melanoma cell migration and tissue invasion in vivo, we utilized the highly metastatic human A875 xenograft model. […] Initially, to mimic metastatic dissemination from the primary tumor site, A875-NT or A875-shp75 cells expressing GFP-Luc (for live-monitoring of tumor growth) were injected intravenously in female SCID mice 24 h following a single oral administration of Np75-A422 (200 mg/kg) or drug vehicle alone. Mice received 3 cycles of Np75-A422 (200 mg/kg/day) following a 5 day on and 2 days off drug schedule for a total of 3 weeks (Fig. 8A). Metastatic spread to the lungs was monitored weekly by luciferase activity using the Xenogen IVIS-200 Optical in vivo luciferase imaging system and mice were sacrificed after the third week. […] In addition, assessment of the metastatic spread was also quantified by histological assessment of non-consecutive lung sections stained for human nucleolin to detect the tumor cells. […] In addition, and as expected, high expression of p75^NTR was detected in lung tumors established by A875-NT cells but was negligible in tumors derived from A875-shp75 cells (Fig. EV10).
Eight-week-old female SCID mice (Charles River Laboratories, Shrewsbury, MA, USA) were housed in groups of three to five and maintained on a 12-h light/dark schedule with a temperature of 22 °C ± 1 °C and a relative humidity of 50% ± 5%. Food and water were available ad libitum. This research study was reviewed and approved by the University of Calgary Animal Care Committee (AC22-0054) and McGill University (AUP-JGH-8269) and adheres to established ethical principles and guidelines. A875-GFPLuc (A875-NT) or A875-GFPLuc shp75 (A875-shp75) cells harvested using Puck’s EDTA were resuspended in PBS and injected intravenously into SCID mice (5 × 10^5 cells/200 μl per mouse). Np75-4A22 was dissolved in 0.5% sodium carboxymethyl cellulose (NaCMC) in reverse osmosis H2O and administered by oral gavage at 200 mg/kg/day starting one day prior to intravenous (tail vein) injection of tumor cells and continued for 3 1-week cycles (cycle: 5 days on drug, 2 days off drug). Tumor spread to the lung was monitored weekly by luciferase activity using the Xenogen IVIS-200 Optical in vivo luciferase imaging system as described previously (Lun et al, [2016]) and by immunohistochemistry (IHC) at designated time points. IHC was performed after formalin fixation, paraffin embedding and sectioning of the lungs, using a human-specific mouse polyclonal nucleolin antibody (1:500 dilution) and detected using Dako liquid DAB+ Substrate Chromogen System (Dako: k3468, California, USA) followed by a hematoxylin counterstain (Sigma, Oakville, ON, Canada). Sections were mounted and imaged on an Olympus phase contrast microscope (Olympus Life Science, Tokyo, Japan). For immunofluorescence, sections were stained with anti-human nucleolin and anti-human p75NTR antibodies (1:1000 dilution), subsequently detected with 1:200 dilutions of Alexa Fluor™ 488 Goat anti-Mouse IgG (H + L) Highly Cross-Adsorbed Secondary Antibody and Alexa Fluor™ 568 Goat anti-Rabbit IgG (H + L) Cross-Adsorbed Secondary Antibody. Sections were further stained with DAPI to detect all nuclei. Between each treatment, TBS Automation Wash Buffer (Biocare Medical TWB945M) was employed. Images were taken with LSM800 confocal microscope and ZEN system.

[4] = 1 uM 4A22 with 100 ng/ml NGF, A875 NT
[5] = 5 uM 4A22 with 100 ng/ml NGF, A875 NT
[6] = C57BL/6, mouse, IV 3 mg/kg, female, plasma
[7] = C57BL/6, mouse, IV 3 mg/kg, male, plasma
[8] = C57BL/6, mouse, PO 10 mg/kg, female, plasma
[9] = C57BL/6, mouse, PO 10 mg/kg, male, plasma

Oc1ccc(-c2cncc(Nc3ccc(Br)c(Cl)c3)n2)cc1 [Div17E5]
apoptosis (cleavage of PARP) after p75NTR knock-down [1]: significantly reduced the pro-apoptotic effects

Cc1cccc(-c2cncc(Nc3ccc(Br)c(Cl)c3Cl)n2)c1C [Np75-4A22]
Filopodia per cell, mean of the well (A875 NT cells; 1 uM 4A22 + 100 ng/ml NGF): 24.0741 and 41.2222 and 33.1667 and 30.2857 | Filopodia per cell, mean of experiment (A875 NT cells; 1 uM 4A22, A875 NT): 30.1580 and 35.6954 and 33.9792 | Filopodia per cell, mean of three experiments (A875 NT cells; 1 uM 4A22, A875 NT): 33.2775 | Filopodia per cell (Filopodia / cell), single image (A875 NT cells; 1 uM 4A22, A875 NT, per image of a well): 35 | Filopodia per cell, mean of well (A875 NT cells; 1 uM 4A22, A875 NT): 25.1429 and 30.1667 and 33.5 and 37.8333 and 34.4167 | Filopodia per cell, mean of the well (A875 NT cells; 1 uM 4A22): 33.2292 and 40 and 23.375 and 24.0278 | Filopodia per cell, mean of experiment (A875 NT cells; [4]): 32.1872 and 28.1825 and 34.5833 | Filopodia per cell, mean of three experiments (A875 NT cells; [4]): 31.6510 | Filopodia per cell, mean of well (A875 NT cells; [4]): 24.6905 and 26.2143 and 30.7143 and 34.6667 and 32.8333 and 35 and 35.8333 | Filopodia per cell, mean of experiment (A875 NT cells; 5 uM 4A22, A875 NT): 31.8244 and 33.2924 and 31.8750 | Filopodia per cell, mean of three experiments (A875 NT cells; 5 uM 4A22, A875 NT): 32.3306 | Filopodia per cell, mean of well (A875 NT cells; 5 uM 4A22, A875 NT): 30.0714 and 40.9286 and 30.3571 and 31.8125 and 34.9167 and 27.4167 and 31.1667 and 34 | Filopodia per cell, mean of the well (A875 NT cells; 5 uM 4A22): 26.1667 and 28.75 and 43.1667 and 29.2143 | Filopodia per cell, mean of experiment (A875 NT cells; [5]): 28.5179 and 33.2679 and 34.0625 | Filopodia per cell, mean of three experiments (A875 NT cells; [5]): 31.9494 | Filopodia per cell, mean of well (A875 NT cells; [5]): 33.2976 and 34 and 40.1786 and 25.5952 and 29.75 and 31.9167 and 35.9167 and 38.6667 | filopodia per cell, compound alone (A875 NT cells; 1 or 5 μM): no effects per se | NGF-induced filopodia per cell (A875 NT cells; 1 or 5 μM, NGF 100 ng/ml): completely abolished the effects of NGF | AUC(0-t) [2, 6]: 1670 ng·h/mL | Cmax ([2]; C57BL/6, mouse, IV 3 mg/kg, female, plasma, back extrapolated): 3400 ng/mL | clearance ([2]; C57BL/6, mouse, IV 3 mg/kg, female, plasma, read-out: CL): 29.5 mL/min/kg | half-life ([2]; C57BL/6, mouse, IV 3 mg/kg, female, plasma, read-out: T1/2 (converted)): 8.64 h | Vd [2, 6]: 3.23 L/kg | AUC(0-t) [2, 7]: 2070 ng·h/mL | Cmax ([2]; C57BL/6, mouse, IV 3 mg/kg, male, plasma, back extrapolated): 4710 ng/mL | clearance ([2]; C57BL/6, mouse, IV 3 mg/kg, male, plasma, read-out: CL): 23.9 mL/min/kg | half-life ([2]; C57BL/6, mouse, IV 3 mg/kg, male, plasma, read-out: T1/2 (converted)): 7.45 h | Vd [2, 7]: 2.09 L/kg | AUC(0-t) [2, 8]: 2680 ng·h/mL | Tmax [2, 8]: 0.5 h | bioavailability [2, 8]: 48% | Cmax [2, 8]: 1030 ng/mL | AUC(0-t) [2, 9]: 4730 ng·h/mL | Tmax [2, 9]: 0.5 h | bioavailability [2, 9]: 69% | Cmax [2, 9]: 1310 ng/mL | clearance ([2]; i.v. 3 mg/kg, male and female): low clearance | half-life ([2]; i.v. 3 mg/kg, male and female): long half-life | absorption ([2]; oral 10 mg/kg, male and female): rapid absorption | oral bioavailability ([2]; oral 10 mg/kg, male and female, 10 mg/kg): good oral bioavailability; also recorded: high oral bioavailability | Photons/second/ mouse/week, Average ([3]; A875-NT, 1wk): 9.39E+04 Photons/second | Photons/second/ mouse/week ([3]; A875-NT, 1wk): 8.62E+04 Photons/second and 1.03E+05 Photons/second and 1.11E+05 Photons/second and 1.02E+05 Photons/second and 1.26E+05 Photons/second and 1.23E+05 Photons/second and 7.03E+04 Photons/second and 6.52E+04 Photons/second and 7.29E+04 Photons/second and 7.98E+04 Photons/second | Photons/second/ mouse/week, Average ([3]; A875-NT, 2wks): 1.01E+05 Photons/second | Photons/second/ mouse/week ([3]; A875-NT, 2wks): 9.63E+04 Photons/second and 1.02E+05 Photons/second and 1.27E+05 Photons/second and 8.86E+04 Photons/second and 1.04E+05 Photons/second and 1.23E+05 Photons/second and 9.01E+04 Photons/second and 9.59E+04 Photons/second and 8.45E+04 Photons/second and 9.64E+04 Photons/second | Photons/second/ mouse/week ([3]; A875-NT, 3wks): 1.77E+05 Photons/second and 1.53E+05 Photons/second and 2.03E+05 Photons/second and 2.34E+05 Photons/second and 2.96E+05 Photons/second and 2.73E+05 Photons/second and 1.26E+05 Photons/second and 2.18E+05 Photons/second and 2.30E+05 Photons/second and 1.32E+05 Photons/second | Metastatic Nodules/Lung Section, Average ([3]; A875-NT, average of 5 non-consecutive slides per individual mouse): 0.6 and 0.2 and 0.4 and 1 and 0 | Cancer Cells/Lung Section, Average per mouse ([3]; A875-NT, average of 5 slides of one mouse): 5.4 and 2 and 18.4 and 8 and 21.4 and 2.2 and 0 | Cancer Cells/Lung Section, group Average ([3]; A875-NT, average of all mice): 6.16 | Metastatic Nodules/Lung Section, group Average ([3]; A875-NT, average over all mice of the group): 0.36 | Metastatic Nodules/Lung Section, Slide 1 ([3]; A875-NT, individual mouse, slide 1 of 5 non-consecutive slides/mouse): 0 and 1 | Metastatic Nodules/Lung Section, Slide 2 ([3]; A875-NT, individual mouse, slide 2 of 5 non-consecutive slides/mouse): 1 and 0 | Metastatic Nodules/Lung Section, Slide 3 ([3]; A875-NT, individual mouse, slide 3 of 5 non-consecutive slides/mouse): 0 and 1 | Metastatic Nodules/Lung Section, Slide 4 ([3]; A875-NT, individual mouse, slide 4 of 5 non-consecutive slides/mouse): 0 and 1 and 2 | Metastatic Nodules/Lung Section, Slide 5 ([3]; A875-NT, individual mouse, slide 5 of 5 non-consecutive slides/mouse): 2 and 1 and 0 | lung tumors (luciferase imaging) ([3]; oral 200 mg/kg/day, 3 cycles 5 days on/2 days off): dramatic reduction of lung tumors | lung tumors by histology (human nucleolin; cancer cells and lesions) ([3]; oral 200 mg/kg/day, 3 weeks): marked reduction
